# Reference: patent publication US20220281848A1, “PYRAZOLE-SUBSTITUTED PYRROLIDINONES AS HERBICIDES” (FMC Corporation, priority 2019, published 2022)
# Columns and labels:
# Type in all cases: in vivo
# maize = test: Test D post-emergence, maize seed treated with a herbicide safener
# Protocol: (§1) A formulation containing 50 g/L of the test chemical was prepared by dissolving the active ingredient in a mixture of organic solvents and emulsifier, details of which are provided in the table. This formulation was then mixed with a small, variable amount of acetone to aid dissolution, before addition of a 0.2% v/v aqueous solution of an adjuvant, as the aqueous diluent, to form an aqueous spray solution which contains a predetermined concentration of the active ingredient.
# (§2) This aqueous spray solution was then sprayed onto plants including maize and wheat that had been seed treated with a herbicide safener, after one day's cultivation (for pre-emergence) or after about 12 days' cultivation (for post-emergence). The plants were grown from seeds sown in standard soil, placed in a glasshouse under controlled conditions (at 24/18° C. or 20/16° C., day/night; 16 h light; 65% humidity). After spray application the plants were then grown in a glasshouse under the same conditions and watered twice daily. After 15 d for post-emergence and 20 DAA for pre-emergence the test was evaluated (100=total damage to plant; 0=no damage to plant).
# wheat = test: Test D pre-emergence, wheat seed treated with a herbicide safener; conditions: 100=total damage, 0=no damage
# Protocol: as §1, §2
# [1] = test system: giant foxtail (Setaria faberi, SETFA); test: Test A post-emergence, giant foxtail; conditions: after 13 d
# How it was run: (§3)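 Visual damage rating (0 no damage to 100 total damage) was made 13 d after spraying. The spray was 15.625, 62.5 or 250 g/ha in 50:50 acetone/water with 0.5% Tween 20, applied to 8-day-old glasshouse plants kept at 24/16° C, 14 h light and 65% humidity.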
# [2] = test system: ivy-leaved morning glory (Ipomoea hederacea, IPOHE); test: Test A pre-emergence, ivy-leaved morning glory; conditions: after 13 d
# How it was run: (§4)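 Values are percent plant damage 13 d after a pre-emergence spray (15.625, 62.5 or 250 g/ha; acetone/water with 0.5% Tween 20) applied to pots one day post-sowing, under glasshouse conditions of 24/16° C. and twice-daily watering.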
# [3] = test system: ivy-leaved morning glory (Ipomoea hederacea, IPOHE); test: Test A post-emergence, ivy-leaved morning glory; conditions: after 13 d
# How it was run: as §3
# [4] = test system: giant foxtail (Setaria faberi, SETFA); test: Test A pre-emergence, giant foxtail; conditions: after 13 d
# How it was run: as §4
SMILES,"damage to plant (100=total damage to plant; 0=no damage to plant), ZEAMX (maize; rate 130, evaluated after 15 d)","damage to plant (100=total damage to plant; 0=no damage to plant), ZEAMX (maize; rate 250, evaluated after 15 d)","damage to plant, TRZAW (wheat; rate 15, 20 DAA)","damage to plant, TRZAW (wheat; rate 30, 20 DAA)","damage to plant, TRZAW (wheat; rate 60, 20 DAA)","damage to plant, TRZAW (wheat; rate 130, 20 DAA)","damage to plant, TRZAW (wheat; rate 250, 20 DAA)","damage to plant, TRZAW (wheat; rate 500, 20 DAA)",damage to plant (100=total damage; 0=no damage) SETFA ([1]; Post-Emergence at 15.625 g/ha),damage to plant (100=total damage; 0=no damage) SETFA ([1]; Post-Emergence at 62.5 g/ha),damage to plant (100=total damage; 0=no damage) SETFA ([1]; Post-Emergence at 250 g/ha),damage to plant (100=total damage; 0=no damage) IPOHE ([2]; Pre-Emergence at 15.625 g/ha),damage to plant (100=total damage; 0=no damage) IPOHE ([2]; Pre-Emergence at 62.5 g/ha),damage to plant (100=total damage; 0=no damage) IPOHE ([2]; Pre-Emergence at 250 g/ha),damage to plant (100=total damage; 0=no damage) IPOHE ([3]; Post-Emergence at 15.625 g/ha),damage to plant (100=total damage; 0=no damage) IPOHE ([3]; Post-Emergence at 62.5 g/ha),damage to plant (100=total damage; 0=no damage) IPOHE ([3]; Post-Emergence at 250 g/ha),damage to plant (100=total damage; 0=no damage) SETFA ([4]; Pre-Emergence at 15.625 g/ha),damage to plant (100=total damage; 0=no damage) SETFA ([4]; Pre-Emergence at 62.5 g/ha),damage to plant (100=total damage; 0=no damage) SETFA ([4]; Pre-Emergence at 250 g/ha),also measured
CN1CC(c2cc(C(F)(F)F)n(C)n2)C(C(=O)Nc2cccc(F)c2F)C1=O (racemic) [Compound 3],0,0,0,0,0,0,0,60,80,90,90,0,0,30,0,0,0,90,90,90,"damage to plant (100=total damage to plant; 0=no damage to plant), ZEAMX (maize; rate 500, evaluated after 15 d): 10"
CN1CC(c2cc(C(F)(F)F)n(C)n2)C(C(=O)Nc2ccc(F)cc2F)C1=O (racemic) [Compound 6],0,10,0,0,0,0,0,10,0,70,70,0,0,10,40,20,10,80,90,90,"damage to plant (100=total damage to plant; 0=no damage to plant), ZEAMX (maize; rate 500, evaluated after 15 d): 20"
CN1CC(c2cc(C(F)(F)F)n(C)n2)C(C(=O)Nc2ccccc2F)C1=O (racemic) [Compound 9],–,–,0,0,0,0,0,0,40,90,90,50,0,0,10,0,0,70,90,90,–
CN1CC(c2cc(C(F)(F)F)n(C)n2)C(C(=O)Nc2ccc(F)c(F)c2F)C1=O (racemic) [Compound 17],0,0,0,0,0,50,60,90,60,70,80,0,0,20,0,0,0,90,90,90,"damage to plant (100=total damage to plant; 0=no damage to plant), ZEAMX (maize; rate 500, evaluated after 15 d): 0"
CN1CC(c2cnn(C)c2C(F)(F)F)C(C(=O)Nc2cccc(F)c2F)C1=O (racemic) [Compound 25],–,–,0,0,0,0,0,0,30,70,80,0,0,0,10,40,40,80,90,100,–
CN1CC(c2cc(Cl)n(C)n2)C(C(=O)Nc2ccc(F)c(F)c2F)C1=O (racemic) [Compound 31],–,–,–,–,0,0,0,0,40,80,80,0,0,10,20,30,40,40,80,80,"TRZAW damage rating (wheat; Rates 15, 20 DAA): 0; TRZAW damage rating (wheat; Rates 30, 20 DAA): 0"
CCn1nc([C@H]2CN(C)C(=O)[C@@H]2C(=O)Nc2cccc(F)c2F)c2ccc(F)cc21 [Compound 4],–,–,0,0,0,0,0,0,90,90,90,0,10,70,0,0,20,80,90,90,–
